Structures can show the parent of a compound that is named as a salt.

The values that follow come from patent publication US6939992B2, “Polymorphic forms of sertraline hydrochloride” (Ciba Specialty Chemicals Corporation, priority 1999, dated 2005).

Data set [1] in a line: Thermal stability / transformation on heating in a DSC apparatus. It counts as physicochemical. The protocol: The crystalline polymorph CSC2 upon heating is transformed into form V at temperatures of about >120° C., whereupon a second transformation takes place into form III at temperatures of about >160° C. (experiment performed in a DSC apparatus with heating rate of 20° C./minute).

Data set [2] can be described thus: Solubility of the polymorphic form. In kind it is physicochemical.
The conditions of data set [3]: disclosed in U.S. Pat. No. 5,248,699; cited from earlier work.
Setting [4] is: DSC apparatus, heating rate of 20° C./minute.

In the case of `CN[C@H]1CC[C@@H](c2ccc(Cl)c(Cl)c2)c2ccccc21` [CSC2, (1S-cis)-4-(3,4-dichlorophenyl)-1,2,3,4-tetrahydro-N-methyl-1-naphthalenamine hydrochloride], in data set [1], the thermal stability entry is “good”. In addition, in data set [1] (setting [4]), the “temperature of second transformation into form III upon heating” value is greater than 160 °C and the “temperature of transformation into form V upon heating” value was greater than 120 °C. The solubility entry in data set [2] is recorded as “high”.

As to `CN[C@H]1CC[C@@H](c2ccc(Cl)c(Cl)c2)c2ccccc21` [form I, sertraline hydrochloride], the “stability compared with the other crystalline forms of sertraline hydrochloride” value in data set [3] is “greatest stability”.
